Test results: US4056625A, “Pesticidal compositions containing benzodioxole derivatives and methods of combating pests” (priority 1972, dated 1977)
In brackets after ≈: the same amount, converted by molar mass.

Experiments:
Assay type in all cases: in vivo
[1] = tested on: second instar larvae of the cabbage white butterfly (Pieris brassicae); assay: Cabbage white butterfly larvae on treated cabbage leaf discs (Examples 41-48); details: 10, 5, 1, 0.5 and 0.25 pounds per acre, three replications, after 48 hours
Source text: 7 centimeter diameter circular discs of cabbage leaves were painted with 1 milliliter aqueous acetone solutions of each of the following compounds:
in each case at concentrations equivalent to leaf applications of 10, 5, 1, 0.5 and 0.25 pounds per acre (11.2, 5.6, 1.12, 0.56 and 0.28 kg./hectare) of active ingredient. When the deposit on the leaf discs had dried, each leaf disc was placed in a 9 centimeter diameter Petri dish, infested with ten second instar larvae of the cabbage white butterfly (Pieris brassicae) and covered with a glass lid. Three replications were made with each compound at each concentration level.

[2] = tested on: adult female yellow fever mosquitos (Aedes aegypti); assay: Yellow fever mosquitos in coated glass tubes (Examples 61-64); details: 3 mg of active ingredient per square foot, after 24 hours
Description: Acetone solutions of the compounds
were applied to the inside walls of glass tubes 9 cm high by 4.5 cm diameter so that after the acetone had evaporated a coating equivalent to 3 mg of active ingredient per square foot remained. Batches of adult female yellow fever mosquitos (Aedes aegypti) were then caged in the tubes.

[3] = tested on: adult female houseflies (Musca domestica); assay: Housefly mortality on treated filter papers (Examples 32-40); details: 100 milligrams per square foot, after 24 hours
Source text: 9 centimeter diameter filter papers treated with aqueous acetone solutions of each of the compounds
at rates equivalent to 100 milligrams per square foot (100 mgm./0.09 m^2.) of active ingredient were placed in 9 centimeter diameter Petri dishes. Batches of adult female houseflies (Musca domestica) lightly anaesthetised with carbon dioxide were then introduced into the dishes and a glass lid placed over each.

[4] = tested on: first stage larvae of the cattle tick, Boophilus microplus; assay: Cattle tick larvae in treated filter paper packets (Example 65); details: 30 parts per million, 25° C, 24 hours
Description: Filter papers, diameter 9 cm., were treated with 1 ml. of acetone solutions containing 30 parts per million of 2,2-dimethyl-1,3-benzodioxol-4-yl N-methylcarbamate or 7-chloro-2,2-dimethyl-1,3-benzodioxol-4-yl N-methylcarbamate. When they had dried, they were folded into quadrant shaped packets, infested with 20 first stage larvae of the cattle tick, Boophilus microplus, closed with a metal clip and kept at 25° C for 24 hours.

[5] = tested on: first instar larvae of the sheep blowfly (Lucilia sericata); assay: Sheep blowfly larvae on treated cotton wool pads (Examples 53-60); details: 1/2 ml. of acetone solution on cotton wool pads, after 24 hours
Description: Cylindrical pads of cotton wool, approximate diameter 1 cm., length 2 cms. were treated with 1/2 ml. of acetone solutions of the following carbamates:
After leaving for 12 hours to dry, the pads were treated with 1 ml. of sheep blood serum and infested with 20 first instar larvae of the sheep blowfly (Lucilia sericata). After 24 hours, the blowflies were examined and found to be all dead; insects similarly infested on untreated pads were unaffected.

[6] = tested on: larvae of the sheep maggot fly (Lucilia sericata); assay: LC50 against sheep maggot fly larvae on dental rolls (Example 71)
Description: (§1) If complete kill was obtained at the highest dosage rate, the test was repeated using a logarithmically reducing dose regime until less than 50% mortality was recorded. The LC50 was then calculated from the line of best fit from the data plotted on log/provit analysis paper.
(§2) Similarly LC50 values were obtained against various pests as described in Examples 70-73 where, however, the LC50 values are abbreviated on a 0-6 scale where
Similarly, LC50 values were obtained for each of Compounds 1, 2, 3, 4, 5 and 6 against larvae of the sheep maggot fly (Lucilia sericata), of the order Diptera. The tests were carried out by placing newly hatched larvae on dental rolls contained in glass vials and soaked with 1 ml of blood serum containing the compound. The mortality was assessed after 24 hours. The highest dosage rate employed was 1000 ppm.

[7] = tested on: adult red spider mites (Tetranychus telarius); assay: LC50 against adult red spider mites on sprayed French beans (Example 73); details: 48 h, read-out: LC50 value
Description: as §1, §2
Similarly, LC50 values were obtained for each of Compounds 1, 2, 4, 5 and 6 against adult red spider mites (Tetranychus telarius), of the order Acarina. The tests were carried out by spraying infected French beans with a 50% acetone water solution of the compound, containing 500 ppm of Lissapol NX as a wetting agent, and recording the mortality after 48 hours. The highest dosage rate employed was 1000 ppm which is equivalent to 10 lb/acre (11.20 kg/ha).

[8] = tested on: adult apterous vetch aphids (Megoura viciae); assay: Vetch aphids on sprayed field beans (Examples 49 and 50); details: 100 parts per million, 50 gallons per acre, 24 hours
Source text: Aqueous suspensions containing 100 parts per million of 2,2-dimethyl-1,3-benzodioxol-4-yl N-methylcarbamate and 2,2-dimethyl-1,3-benzodioxol-4-yl N-acetyl-N-methylcarbamate were sprayed at a rate equivalent to 50 gallons per acre (585 liters per hectare) on young field beans (Vicia faba) infested with adult apterous vetch aphids (Megoura viciae). After treatment the plants were enclosed in glass cages with gauze tops for ventilation.

[9] = tested on: German cockroaches (Blattella germanica); assay: Persistency against German cockroaches on treated glass plates (Example 74); details: 100 mg/ft^2 (1.065 g/m^2), 2nd stage nymphs, 7 day intervals until less than 50% mortality
Description: Persistency was measured against German cockroaches (Blattella germanica), or the order Orthoptera, by treating glass plates with acetone solutions of the compunds listed below to produce a deposit equivalent to 100 mg/ft^2 (1.065 g/m^2), and caging 2nd stage nymph cockroaches on these surfaces for 48 hours at 7 day intervals until less than 50% mortality was recorded.

[10] = tested on: adult female houseflies (Musca domestica); assay: LC50 against adult female houseflies on filter papers (Example 70)
Description: as §1, §2
LC50 values were obtained for each of Compounds 1, 2, 3, 4, 5 and 6 against adult female houseflies (Musca domestica), of the order Diptera. The tests were carried out by adding acetone solutions of the compounds to 9 cm diameter filter papers in the base of 9 cm diameter crystallising dishes, placing the houseflies in the dishes after the acetone had evaporated, closing the dishes with Petri dish lids and counting the mortality after 24 hours. The highest dosage rate employed was 1000 mg/ft^2 (10.65 g/m^2).

[11] = tested on: 2nd stage nymph of the German cockroach (Blattella germanica); assay: LC50 against German cockroach nymphs in treated glass tubes (Example 69)
Description: Compounds 2 and 4 and also 2,2-dimethyl-1,3- benzodioxol-4-yl N-methylcarbamate(compound 5) and 2,2-dimethyl-1,3-benzodioxol-4-yl N-acetyl-N-methylcarbamate (compound 6) were tested for activity against the 2nd stage nymph of the German cockroach (Blattella germanica), of the order Orthoptera, by treating the walls of glass tubes (9.0 cm high × 4.5 cm diameter) with acetone solutions of the compounds and after the acetone had evaporated caging the insects in the tubes for 48 hours. The highest dosage rate employed was 50 mg/ft^2 (532 mg/m^2).
as §1
The LC50 values are abbreviated on a 0-6 scale where

[12] = tested on: yellow fever mosquito (Aedes aegypti); assay: Persistency against yellow fever mosquito on treated glass plates (Example 75); details: 100 mg/ft^2 (1.065 g/m^2), adult female mosquitos, 7 day intervals until less than 50% mortality
Description: Persistency was measured against yellow fever mosquito (Aedes aegypti), of the order Diptera, by treating glass plates with acetone solutions of the compounds listed below to produce a deposit equivalent to 100 mg/ft^2 (1.065 g/m^2), and caging adult female mosquitos on these surfaces for 24 hours at 7 day intervals until less than 50% mortality was recorded.

C=CCNC(=O)Oc1cccc2c1OC(C)(C)O2 [2,2-dimethyl-1,3-benzodioxol-4-yl N-allylcarbamate]
mortality of cabbage white butterfly larvae [1]: all found to be dead

CC(=O)N(C)C(=O)Oc1cccc2c1OC(C)(C(C)(C)C)O2 (centres unmarked) [2-methyl-2-t-butyl-1,3-benzodioxol-4-yl N-acetyl-N-methylcarbamate]
mortality of yellow fever mosquitos [2]: all found to be dead

CCCC(=O)N(C)C(=O)Oc1cccc2c1OCO2 [1,3-benzodioxol-4-yl N-butyryl-N-methylcarbamate]
mortality of houseflies [3]: all found to be dead

CNC(=O)Oc1ccc(Cl)c2c1OC(C)(C)O2 [7-chloro-2,2-dimethyl-1,3-benzodioxol-4-yl N-methylcarbamate]
mortality of cattle tick larvae [4]: all the ticks in the treated filter papers were dead

CNC(=O)Oc1cc(C)cc2c1OC(C)(C)O2 [2,2,6-trimethyl-1,3-benzodioxol-4-yl N-methylcarbamate]
mortality of sheep blowfly larvae [5]: all dead

CCC1(CC)Oc2cccc(OC(=O)NC)c2O1 [2,2-diethyl-1,3-benzodioxol-4-yl N-methylcarbamate]
mortality of sheep blowfly larvae [5]: all dead

CNC(=O)Oc1cccc2c1OCO2 [1,3-benzodioxol-4-yl N-methylcarbamate]
mortality of houseflies [3]: all found to be dead

CC(=O)N(C)C(=O)Oc1cccc2c1OC(C)(C)O2 [Compound 6, 2,2-dimethyl-1,3-benzodioxol-4-yl N-acetyl-N-methylcarbamate]
LC50 ([6]; Lucilia sericata, 24 h, read-out: LC50 value): 30 to 99 µg/mL (≈ 113 to 373 µM) | activity against sheep maggot fly (in words) ([6]; compared with compound 5): worse | LC50 [7]: 100 to 299 µg/mL (≈ 377 to 1130 µM) | kill of vetch aphids [8]: complete kill of the aphids in 24 hours | Persistency [9]: 8 to 14 days | LC50 value ([10]; adult female houseflies, 24 hours, 0-6 scale (mg/ft^2)): 3 (30-99 mg/ft^2 (0.32 - 1.06 g/m^2)) | activity against houseflies (in words) ([10]; compared with compound 5): worse | mortality of cabbage white butterfly larvae [1]: all found to be dead | LC50 value ([11]; 2nd stage nymph German cockroach, 48 hours, 0-6 scale): 1 (15-50 mg/ft^2 (160-532 mg/m^2)) | activity against cockroaches (in words) ([11]; cockroaches): low activity against cockroaches | mortality of houseflies [3]: all found to be dead | Persistency [12]: 15 to 21 days

CC(=O)N(C)C(=O)Oc1cccc2c1OC1(CCCCC1)O2 [2,2-pentamethylene-1,3-benzodioxol-4-yl N-acetyl-N-methylcarbamate]
mortality of yellow fever mosquitos [2]: all found to be dead

CC(=O)N(C)C(=O)Oc1cccc2c1OC1(CCCC1)O2 [2,2-tetramethylene-1,3-benzodioxol-4-yl N-acetyl-N-methylcarbamate]
mortality of yellow fever mosquitos [2]: all found to be dead

C=CCN(C(C)=O)C(=O)Oc1cccc2c1OC(C)(C)O2 [2,2-dimethyl-1,3-benzodioxol-4-yl N-acetyl-N-allylcarbamate]
mortality of houseflies [3]: all found to be dead

CCC1(CC)Oc2cccc(OC(=O)N(C)C(C)=O)c2O1 [2,2-diethyl-1,3-benzodioxol-4-yl N-acetyl-N-methylcarbamate]
mortality of yellow fever mosquitos [2]: all found to be dead

CC(=O)N(C)C(=O)Oc1cc(C)cc2c1OC(C)(C)O2 [2,2,6-trimethyl-1,3-benzodioxol-4-yl N-acetyl-N-methylcarbamate]
mortality of houseflies [3]: all found to be dead

C#CCNC(=O)Oc1cccc2c1OC(C)(C)O2 [2,2-dimethyl-1,3-benzodioxol-4-yl N-propargylcarbamate]
mortality of cabbage white butterfly larvae [1]: all found to be dead

CCC1(C)Oc2cccc(OC(=O)NC)c2O1 (centres unmarked) [2-ethyl-2-methyl-1,3-benzodioxol-4-yl N-methylcarbamate]
mortality of cabbage white butterfly larvae [1]: all found to be dead | mortality of sheep blowfly larvae [5]: all dead

CNC(=O)Oc1cccc2c1OC1(CCCC1)O2 [2,2-tetramethylene-1,3-benzodioxol-4-yl N-methylcarbamate]
mortality of cabbage white butterfly larvae [1]: all found to be dead

CNC(=O)Oc1ccc(C)c2c1OC(C)(C)O2 [2,2,7-trimethyl-1,3-benzodioxol-4-yl N-methylcarbamate]
mortality of cabbage white butterfly larvae [1]: all found to be dead | mortality of sheep blowfly larvae [5]: all dead

CC(=O)N(C)C(=O)Oc1cccc2c1OC(C)O2 (centres unmarked) [2-methyl-1,3-benzodioxol-4-yl N-acetyl-N-methylcarbamate]
mortality of houseflies [3]: all found to be dead

CCc1ccc(OC(=O)NC)c2c1OC(C)(C)O2 [7-ethyl-2,2-dimethyl-1,3-benzodioxol-4-yl N-methylcarbamate]
mortality of sheep blowfly larvae [5]: all dead

C#CCN(C(C)=O)C(=O)Oc1cccc2c1OC(C)(C)O2 [2,2-dimethyl-1,3-benzodioxol-4-yl N-acetyl-N-propargylcarbamate]
mortality of cabbage white butterfly larvae [1]: all found to be dead

CNC(=O)Oc1cccc2c1OC(C)O2 (centres unmarked) [2-methyl-1,3-benzodioxol-4-yl N-methylcarbamate]
mortality of sheep blowfly larvae [5]: all dead

CNC(=O)Oc1cccc2c1OC(C)(C(C)(C)C)O2 (centres unmarked) [2-tert-butyl-2-methyl-1,3-benzodioxol-4-yl N-methylcarbamate]
mortality of sheep blowfly larvae [5]: all dead
